Laboratory results published in PMC9501058, “Clinical Effectiveness and Pharmacokinetics of Dalbavancin in Treatment-Experienced Patients with Skin, Osteoarticular, or Vascular Infections” (Pharmaceutics, 2022).
Where two headings read alike, the source gives them in different places.

Experiments:
[1] = Adverse events under DBV; type: in vivo, human
Description: Table 1 Overall patients’ characteristics at the baseline. | column: Overall / n = 76; Intensive PK Study (n = 41) / Group 0 (n = 17)

[2] = system: plasma proteins (mainly albumin); conditions: human; cited from earlier work
[3] = clinical; conditions: human, in vivo, iv
[4] = cited from earlier work
[5] = 35 healthy subjects, single infusion of 1500 mg; ref Rappo et al. 15; cited from earlier work
[6] = single 1000 mg infusion; ref Nicolau et al. 14; cited from earlier work
[7] = ref Dunne et al. 16; cited from earlier work
[8] = human, in vivo

CN[C@H]1C(=O)N[C@@H]2Cc3ccc(cc3)Oc3cc4cc(c3O[C@@H]3O[C@H](C(=O)O)[C@@H](O)[C@H](O)[C@H]3NC(=O)CCCCCCCCC(C)C)Oc3ccc(cc3Cl)[C@@H](O)[C@@H]3NC(=O)[C@H](NC(=O)[C@@H]4NC(=O)[C@@H](NC2=O)c2cc(cc(O)c2Cl)Oc2cc1ccc2O)c1ccc(O)c(c1)-c1c(O[C@H]2O[C@H](CO)[C@@H](O)[C@H](O)[C@@H]2O)cc(O)cc1[C@@H](C(=O)NCCCN(C)C)NC3=O [DBV, Dalbavancin]
AEs: yes ([1]; number of patients [%], group 0 (n = 17): single 1500 mg dose): 1 [6%] | AEs: yes ([1]; number of patients, overall n = 76): 1 | Protein binding (mean percentage in humans) [2]: 93% | Cmax ([3]; 1500 mg, Cmax I dose): 343 µg/mL | Cmax ([3]; Cmax II dose): 337 µg/mL | Elimination half-life [4]: 9 to 10 days | Penetration into the epithelial-lining fluid [5]: 36% | Mean penetration into skin blister fluid compared with plasma [6]: 59.6% | Mean bone/plasma AUC [7]: 13.1% | AUC0–3w [8]: 39,985 [37,045–39,985] mg/L·h | Cmax II dose [8]: 379.5 [321.3–448.8] mg/L | AUC0–1w ([8]; iv): 26,693 [20,842–28,630] mg/L·h | AUC0–2w ([8]; iv): 34,168 [25,336–37,301] mg/L·h | AUC0–3w ([8]; iv): 39,270 [28,876–43,971] mg/L·h | Cmax I dose ([8]; iv): 347.0 [292.4–479.2] mg/L | Cumul. AUC0–4w ([8]; iv): 41,681 [32,055–48,180] mg/L·h
